Assay results published in patent publication US20110092544A1, “FUNGICIDAL PYRIDINES” (E.I. DU PONT DE nemours and company, priority 2008, published 2011).

Tests used:
Format in all cases: in vivo
Septoria tritici = assay: Test C: wheat leaf blotch, preventive spray on wheat seedlings, visual disease rating; settings: for pest or weed control at 200 ppm: Zymoseptoria tritici, 504 h
Procedure, shortened: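 Wheat seedlings sprayed to run-off with compound in acetone/water plus 250 ppm surfactant at 200 ppm (≈500 g/ha), or 40 ppm where marked; inoculated with Septoria tritici next day. Held saturated at 20 °C for 48 h, then 19 days at 20 °C; disease control rated visually 0–100 versus controls.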

Rhizoctonia oryzae = assay: Test G: turf brown patch, preventive spray on creeping bent grass seedlings, visual disease rating; settings: for pest or weed control at 200 ppm: Waitea circinata, in Agrostis stolonifera, 120 h
Source text: (§1) General protocol for preparing test suspensions for Tests A-H: The test compounds were first dissolved in acetone in an amount equal to 3% of the final volume and then suspended at the desired concentration (in ppm) in acetone and purified water (50/50 mix) containing 250 ppm of the surfactant Trem® 014 (polyhydric alcohol esters). The resulting test suspensions were then used in tests A-H. Spraying a 200 ppm test suspension to the point of run-off on the test plants was the equivalent of a rate of 500 g/ha.
The test suspension was sprayed to the point of run-off on creeping bent grass seedlings. The following day the seedlings were inoculated with a spore suspension of Rhizoctonia oryzae (the causal agent of turf brown patch) and incubated in a saturated atmosphere at 27° C. for 48 h, and then moved to a growth chamber at 27° C. for 3 days, after which time disease ratings were visually made.
(§2) Results for Tests A-H are given in Table A. In the table, a rating of 100 indicates 100% disease control and a rating of 0 indicates no disease control (relative to the controls). A dash (-) indicates no test results. All results are for compounds tested at 200 ppm except where the compound number is followed by “*” which indicates the compound was tested at 40 ppm.

Botrytis cinerea = assay: Test F: tomato botrytis, preventive spray on tomato seedlings, visual disease rating; settings: for pest or weed control at 200 ppm: Botrytis cinerea, 120 h
Procedure, shortened: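 Tomato seedlings sprayed to run-off with compound suspended in acetone/water (50/50) plus 250 ppm Trem 014, at 200 ppm (≈500 g/ha) or 40 ppm where marked. Inoculated next day with B. cinerea spores, 48 h saturated atmosphere at 20 °C, then 3 days at 24 °C. Visual rating, 0–100% disease control relative to controls.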

Septoria nodorum = assay: Test D: wheat glume blotch, preventive spray on wheat seedlings, visual disease rating; settings: for pest or weed control at 200 ppm: Parastagonospora nodorum, 216 h
Procedure, shortened: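 Compounds in 3% acetone, then 50/50 acetone–water with 250 ppm Trem 014, sprayed to run-off at 200 ppm (500 g/ha; some at 40 ppm) one day before spore inoculation. Held 48 h saturated at 20 °C, then 7 days at 20 °C; visual rating as % disease control vs untreated (0–100).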

Plasmopara viticola = assay: Test H: grape downy mildew, spray after inoculation of grape seedlings, visual disease rating; settings: for pest or weed control at 200 ppm: Plasmopara viticola, 192 h
Source text: as §1
Grape seedlings were inoculated with a spore suspension of Plasmopara viticola (the causal agent of grape downy mildew) and incubated in a saturated atmosphere at 20° C. for 24 h. After a short drying period, the test suspension was sprayed to the point of run-off on the grape seedlings, and then moved to a growth chamber at 20° C. for 6 days, after which time the test units were placed back into a saturated atmosphere at 20° C. for 24 h. Upon removal, disease ratings were visually made.
as §2

Alternaria solani = assay: Test E: tomato early blight, preventive spray on tomato seedlings, visual disease rating; settings: for pest or weed control at 200 ppm: Alternaria solani, 168 h
Procedure, shortened: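 Seedlings sprayed to run-off with compound in acetone/water plus 250 ppm Trem 014 (200 ppm ≈ 500 g/ha), inoculated with spores next day. Held 48 h saturated at 27 °C, then 5 days at 20 °C; visual rating 0–100% disease control relative to controls.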

[1] = test system: Erysiphe graminis f. sp. tritici; assay: Test A: wheat powdery mildew, preventive spray on wheat seedlings, visual disease rating; settings: for pest or weed control at 200 ppm: Blumeria graminis, 192 h
Procedure, shortened: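 Acetone/water (50/50) suspension with 250 ppm surfactant sprayed to run-off on wheat seedlings (200 ppm ≈ 500 g/ha); inoculated next day with E. graminis spore dust. Incubated 8 days at 20° C, then visually rated 0–100% disease control versus untreated controls; tests at 200 ppm or 40 ppm.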

[2] = test system: Puccinia recondite f. sp. tritici; assay: Test B: wheat leaf rust, preventive spray on wheat seedlings, visual disease rating; settings: for pest or weed control at 200 ppm: 192 h
Procedure, shortened: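 Wheat seedlings were sprayed to run-off with compound suspension, 200 ppm (≈500 g/ha) or 40 ppm where marked, containing surfactant in acetone/water. Inoculation with Puccinia recondita spores followed one day later, then 24 h in saturated humidity at 20° C and 7 days at 20° C. Disease control was rated visually, 0–100% versus controls.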

[3] = 200 ppm, 100 = 100% disease control, 0 = no control
[4] = 40 ppm (compound number followed by *)

SMILES	Test C rating (% disease control) (Septoria tritici; [3]) [%]	Test G rating (% disease control) (Rhizoctonia oryzae; [3]) [%]	Test F rating (% disease control) (Botrytis cinerea; [3]) [%]	Test D rating (% disease control) (Septoria nodorum; [3]) [%]	Test H rating (% disease control) (Plasmopara viticola; [3]) [%]	Test E rating (% disease control) (Alternaria solani; [3]) [%]	Test A rating (% disease control) [1, 3] [%]	Test B rating (% disease control) [2, 3] [%]	further results
CCOC(=O)c1cnc(C)c(-c2ccccc2)c1-c1cc(OC)ccc1Cl [Compound 7]	52	97	98	0	0	0	97	74	
CCOC(=O)c1cnc(C)c(-c2ccccc2)c1-c1cc(F)cc(F)c1 [Compound 8]	0	0	0	0	17	0	98	0	
CNC(=O)c1cnc(C)c(-c2ccccc2)c1-c1cc(OC)cc(OC)c1 [Compound 9]	86	0	37	0	0	99	94	0	
COc1cc(OC)cc(-c2c(C(=O)N(C)C)cnc(C)c2-c2ccccc2)c1 [Compound 10]	33	0	80	0	0	8	96	0	
C=C(C)c1cnc(C)c(-c2ccc(F)cc2)c1-c1cc(OC)cc(OC)c1 [Compound 16, 4-(3,5-dimethoxyphenyl)-3-(4-fluorophenyl)-2-methyl-5-(1-methylethenyl)pyridine]									pest or weed control at 200 ppm (Septoria tritici; [3]): 100%; pest or weed control at 200 ppm (Rhizoctonia oryzae; [3]): 99%; pest or weed control at 200 ppm (Botrytis cinerea; [3]): 99%; pest or weed control at 200 ppm (Septoria nodorum; [3]): 73%; pest or weed control at 200 ppm (Plasmopara viticola; [3]): 0%; pest or weed control at 200 ppm (Alternaria solani; [3]): 99%; pest or weed control at 200 ppm [1, 3]: 99%; pest or weed control at 200 ppm [2, 3]: 100%
COc1cc(OC)cc(-c2c(C(C)=O)cnc(C)c2-c2ccccc2F)c1 [Compound 17]	100	60	99	0	0	46	96	98	
COc1cc(OC)cc(-c2c(C(C)C)cnc(C)c2-c2ccc(F)cc2)c1 [Compound 19, 4-(3,5-dimethoxyphenyl)-3-(4-fluorophenyl)-2-methyl-5-(1-methylethyl)pyridine]									pest or weed control at 200 ppm (Septoria tritici; [3]): 100%; pest or weed control at 200 ppm (Rhizoctonia oryzae; [3]): 99%; pest or weed control at 200 ppm (Botrytis cinerea; [3]): 99%; pest or weed control at 200 ppm (Septoria nodorum; [3]): 0%; pest or weed control at 200 ppm (Plasmopara viticola; [3]): 0%; pest or weed control at 200 ppm (Alternaria solani; [3]): 99%; pest or weed control at 200 ppm [1, 3]: 99%; pest or weed control at 200 ppm [2, 3]: 99%
CCOC(=O)c1cnc(C)c(-c2ccccc2F)c1-c1cc(OC)cc(OC)c1 [Compound 20]	100	0	99	0	53	0	98	90	
COc1cc(OC)cc(-c2c(-c3ccccc3)c(C)nc(C)c2-c2ccc(F)cc2)c1 [Compound 22]	95	0	99	0	0	0	78	55	
COc1cc(OC)cc(-c2c(-c3ccccc3)c(C)nc(C)c2-c2ccccc2F)c1 [Compound 23]	83	0	99	0	0	0	62	80	
COc1cc(OC)cc(-c2c(-c3ccccc3)c(C)[n+]([O-])c(C)c2-c2ccccc2F)c1 [Compound 24]									Test C rating (% disease control) (Septoria tritici; [4]): 97%; Test G rating (% disease control) (Rhizoctonia oryzae; [4]): 0%; Test F rating (% disease control) (Botrytis cinerea; [4]): 99%; Test D rating (% disease control) (Septoria nodorum; [4]): 0%; Test H rating (% disease control) (Plasmopara viticola; [4]): 0%; Test E rating (% disease control) (Alternaria solani; [4]): 76%; Test A rating (% disease control) [1, 4]: 91%; Test B rating (% disease control) [2, 4]: 95%
CCOC(=O)c1cnc(CC)c(-c2ccccc2)c1-c1cc(OC)cc(OC)c1 [Compound 31]	80	0	41	0	0	0	0	0	
COc1cc(OC)cc(-c2c(-c3ccccc3F)cnc(C)c2-c2ccccc2)c1 [Compound 32]	99	99	99	0	0	59	98	96	
COc1cc(OC)cc(-c2c(-c3ccccc3)cnc(C)c2-c2ccc(F)cc2)c1 [Compound 34, 4-(3,5-dimethoxyphenyl)-3-(4-fluorophenyl)-5-phenyl-2-methylpyridine]									pest or weed control at 200 ppm (Septoria tritici; [3]): 100%; pest or weed control at 200 ppm (Rhizoctonia oryzae; [3]): 63%; pest or weed control at 200 ppm (Botrytis cinerea; [3]): 99%; pest or weed control at 200 ppm (Septoria nodorum; [3]): 77%; pest or weed control at 200 ppm (Plasmopara viticola; [3]): 0%; pest or weed control at 200 ppm (Alternaria solani; [3]): 96%; pest or weed control at 200 ppm [1, 3]: 96%; pest or weed control at 200 ppm [2, 3]: 96%
COc1cc(OC)cc(-c2c(-c3ccccc3F)cnc(C)c2-c2ccc(F)cc2)c1 [Compound 35]	99	99	99	99	0	99	99	100	
COc1cc(OC)cc(-c2c(-c3ccc(F)cc3)cnc(C)c2-c2ccccc2)c1 [Compound 36]	93	14	94	0	0	30	65	0	
